Here are results for 21 compounds from patent US20230117470A1, “SUBSTITUTED PYRAZOLE COMPOUNDS AS TOLL RECEPTOR INHIBITORS” (BRISTOL-MYERS SQUIBB COMPANY, priority 2019, published 2023).

Where only a bound is given, the exact number is not on record here.

Assay type in all cases: cell-based
The target of assay [1] is T1, human TLR7 (Homo sapiens, UniProt Q9NYK1).
T1 construct: host or cells: HEK-Blue cells
T1 sequence (Q9NYK1 27-1049): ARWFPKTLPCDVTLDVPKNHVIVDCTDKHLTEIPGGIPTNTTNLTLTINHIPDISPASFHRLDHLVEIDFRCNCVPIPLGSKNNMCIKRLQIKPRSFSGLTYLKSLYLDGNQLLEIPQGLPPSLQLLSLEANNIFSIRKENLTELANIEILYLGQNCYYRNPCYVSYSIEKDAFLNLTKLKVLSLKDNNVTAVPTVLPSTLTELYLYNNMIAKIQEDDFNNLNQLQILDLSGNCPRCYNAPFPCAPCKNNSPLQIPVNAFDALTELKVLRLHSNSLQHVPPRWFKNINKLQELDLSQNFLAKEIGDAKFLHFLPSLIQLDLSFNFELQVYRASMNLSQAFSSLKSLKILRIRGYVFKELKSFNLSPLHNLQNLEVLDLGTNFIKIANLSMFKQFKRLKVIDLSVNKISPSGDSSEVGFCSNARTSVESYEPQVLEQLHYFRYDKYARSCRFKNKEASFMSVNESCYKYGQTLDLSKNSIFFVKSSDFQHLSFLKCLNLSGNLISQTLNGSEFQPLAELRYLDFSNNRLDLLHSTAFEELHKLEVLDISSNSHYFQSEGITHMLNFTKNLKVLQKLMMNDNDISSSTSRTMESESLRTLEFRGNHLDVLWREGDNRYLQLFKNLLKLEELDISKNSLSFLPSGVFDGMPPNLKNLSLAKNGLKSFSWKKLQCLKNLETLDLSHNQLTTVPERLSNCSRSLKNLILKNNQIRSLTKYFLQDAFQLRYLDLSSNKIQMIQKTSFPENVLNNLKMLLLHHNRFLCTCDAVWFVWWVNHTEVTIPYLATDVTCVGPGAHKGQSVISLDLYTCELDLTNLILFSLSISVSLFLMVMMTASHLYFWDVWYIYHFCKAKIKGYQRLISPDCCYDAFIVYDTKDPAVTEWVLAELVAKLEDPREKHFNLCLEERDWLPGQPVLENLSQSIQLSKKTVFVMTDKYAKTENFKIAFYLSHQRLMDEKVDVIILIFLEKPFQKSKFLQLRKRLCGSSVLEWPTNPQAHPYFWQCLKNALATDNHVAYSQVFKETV
Nature of the assay: TLR7 inhibition reporter assay (HEK-Blue cells, SEAP reporter, gardiquimod stimulation). Particulars: HEK-Blue cells overexpressing human TLR7, SEAP reporter, gardiquimod 7.5 μM. In outline: (§1)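 HEK-Blue cells overexpressing human TLR7, TLR8 or TLR9, with an NF-κB/AP-1-driven SEAP reporter, pre-treated 30 min at room temperature with compound (0.05 nM-50 μM final). Stimulated with 7.5 μM gardiquimod (TLR7), 15.9 μM R848 (TLR8) or 5 nM ODN2006 (TLR9), then 22 h at 37° C. SEAP read with HEK-Blue Detection; % inhibition set against agonist+DMSO and known-inhibitor wells.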
(In a reporter assay the amount or activity of a reporter protein is the signal.)

The target in assay [2] is T2, human TLR8 (Homo sapiens, UniProt Q9NR97).
T2 construct: host or cells: HEK-Blue cells
T2 sequence (Q9NR97 27-1041): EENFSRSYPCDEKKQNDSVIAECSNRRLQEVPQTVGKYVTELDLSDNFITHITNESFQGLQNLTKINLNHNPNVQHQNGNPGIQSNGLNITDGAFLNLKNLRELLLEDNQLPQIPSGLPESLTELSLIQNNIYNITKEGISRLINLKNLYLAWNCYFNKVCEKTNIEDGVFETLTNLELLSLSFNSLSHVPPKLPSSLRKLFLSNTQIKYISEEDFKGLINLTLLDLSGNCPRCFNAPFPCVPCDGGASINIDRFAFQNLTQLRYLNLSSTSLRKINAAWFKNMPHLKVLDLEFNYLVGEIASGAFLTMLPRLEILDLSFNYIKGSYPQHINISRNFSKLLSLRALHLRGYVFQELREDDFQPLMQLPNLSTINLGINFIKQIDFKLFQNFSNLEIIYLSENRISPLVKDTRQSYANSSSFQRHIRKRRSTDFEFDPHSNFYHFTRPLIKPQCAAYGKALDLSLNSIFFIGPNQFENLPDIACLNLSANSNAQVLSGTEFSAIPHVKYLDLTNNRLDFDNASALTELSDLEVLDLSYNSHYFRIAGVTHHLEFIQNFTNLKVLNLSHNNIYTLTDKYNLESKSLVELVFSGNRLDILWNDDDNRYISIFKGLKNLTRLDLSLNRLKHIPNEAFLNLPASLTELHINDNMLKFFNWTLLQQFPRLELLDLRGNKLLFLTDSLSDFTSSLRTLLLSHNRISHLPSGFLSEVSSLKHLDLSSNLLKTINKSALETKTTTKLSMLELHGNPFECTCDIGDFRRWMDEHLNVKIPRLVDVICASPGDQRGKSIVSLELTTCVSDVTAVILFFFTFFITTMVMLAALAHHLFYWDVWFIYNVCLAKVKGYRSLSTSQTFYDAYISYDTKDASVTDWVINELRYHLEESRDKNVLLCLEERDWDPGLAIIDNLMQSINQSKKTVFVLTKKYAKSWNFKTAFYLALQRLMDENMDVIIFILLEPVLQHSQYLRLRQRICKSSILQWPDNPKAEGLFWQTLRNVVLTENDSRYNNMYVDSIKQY
The experiment in a line: TLR8 inhibition reporter assay (HEK-Blue cells, SEAP reporter, R848 stimulation). Particulars: HEK-Blue cells overexpressing human TLR8, SEAP reporter, R848 15.9 μM. The gist of the method: as §1

Assay [3] concerns the target T3, human TLR9 (Homo sapiens, UniProt Q9NR96).
T3 construct: host or cells: HEK-Blue cells
T3 sequence (Q9NR96 26-1032): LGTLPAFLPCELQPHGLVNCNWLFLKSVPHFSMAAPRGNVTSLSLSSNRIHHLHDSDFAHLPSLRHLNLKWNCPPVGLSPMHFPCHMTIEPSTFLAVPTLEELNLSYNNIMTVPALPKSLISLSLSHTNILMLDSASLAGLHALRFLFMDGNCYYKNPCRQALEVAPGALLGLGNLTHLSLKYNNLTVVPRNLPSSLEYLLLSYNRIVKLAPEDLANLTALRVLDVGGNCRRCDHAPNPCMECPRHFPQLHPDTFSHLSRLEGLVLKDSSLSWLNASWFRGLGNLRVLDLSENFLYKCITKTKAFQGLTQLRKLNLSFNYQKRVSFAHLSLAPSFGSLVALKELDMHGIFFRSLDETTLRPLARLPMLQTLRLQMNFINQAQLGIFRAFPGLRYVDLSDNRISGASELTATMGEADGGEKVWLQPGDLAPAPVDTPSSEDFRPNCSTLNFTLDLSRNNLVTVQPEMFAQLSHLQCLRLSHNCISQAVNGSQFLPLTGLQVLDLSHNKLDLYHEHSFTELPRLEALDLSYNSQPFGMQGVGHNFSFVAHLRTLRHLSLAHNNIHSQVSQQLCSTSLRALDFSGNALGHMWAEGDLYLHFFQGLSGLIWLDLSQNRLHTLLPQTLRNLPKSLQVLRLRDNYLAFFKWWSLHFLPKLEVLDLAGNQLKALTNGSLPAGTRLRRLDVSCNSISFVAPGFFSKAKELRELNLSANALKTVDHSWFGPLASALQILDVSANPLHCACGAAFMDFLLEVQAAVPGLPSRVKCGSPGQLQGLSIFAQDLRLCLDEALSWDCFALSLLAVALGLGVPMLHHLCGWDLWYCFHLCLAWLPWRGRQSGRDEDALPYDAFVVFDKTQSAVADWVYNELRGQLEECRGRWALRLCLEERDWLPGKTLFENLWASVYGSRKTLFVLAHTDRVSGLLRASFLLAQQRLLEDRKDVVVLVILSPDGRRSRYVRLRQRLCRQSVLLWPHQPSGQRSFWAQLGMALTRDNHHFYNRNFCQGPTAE
The experiment in a line: TLR9 inhibition reporter assay (HEK-Blue cells, SEAP reporter, ODN2006 stimulation). Particulars: HEK-Blue cells overexpressing human TLR9, SEAP reporter, ODN2006 5 nM. The gist of the method:
as §1

Regarding `Cc1cc(-c2[nH]nc(C(=O)N[C@@H]3CCCN(C(C)C)C3)c2C(C)C)cn2ncnc12` [Example 161], the IC50 (in general, the concentration at which inhibition is half-maximal) was 0.0181 µM in assay [1], 0.0147 µM in assay [2] and 17 µM in assay [3].
For `Cc1cc(-c2[nH]nc(C3CCC(N4CCOCC4)CC3)c2C(C)C)cn2ncnc12` (single isomer, unassigned) [Example 291] the same measures were 0.00765 µM, 0.00039 µM and 16.8 µM.
For `Cc1cc(-c2[nH]nc(C3CCC(NCCN(C)C)CC3)c2C(C)C)cn2ncnc12` (single isomer, unassigned) [Example 285] the same measures were 0.0077 µM, 0.00271 µM and above 50 µM.
For `Cc1cc(-c2[nH]nc(C(=O)N[C@@H]3CCCNC3)c2C(C)C)cn2ncnc12` [Example 52] the same measures were 0.0029 µM, 0.00422 µM and 18 µM.
As for `Cc1cc(-c2[nH]nc(C(=O)NC3CCCNC3)c2C(C)C)cn2ncnc12` (stereo not drawn) [Example 67], the values for the IC50 in assay [1], in assay [2] and in assay [3] were 0.0126 µM, 0.0129 µM and 2.25 µM, respectively.
As for `COc1cc(-c2[nH]nc(-c3ccc(C4CCN(CC5CCOCC5)CC4)cn3)c2C(C)C)cn2ncnc12` [Example 375], the results for the IC50 in assay [1], in assay [2] and in assay [3] were 0.0199 µM, 0.0084 µM and 35.6 µM, respectively.
Regarding `CCN1CCC(c2ccc(-c3n[nH]c(-c4cc(C)c5ncnn5c4)c3C(C)C)cc2)CC1` [Example 310], the 50% inhibitory concentration (IC50) in assay [1] came out at 0.00145 µM; in assay [2] it was 0.00043 µM; in assay [3] it was 19.3 µM.
As for `Cc1cc(-c2[nH]nc(C(=O)NC3CCN(CCC(C)C)CC3)c2C(C)C)cn2ncnc12` [Example 76], the IC50 in assay [1] was determined as 0.0009 µM; in assay [2] it was 0.00262 µM; in assay [3], 1.45 µM.
Take `Cc1cc(-c2[nH]nc(C(N)=O)c2C(C)C)cn2ncnc12` [Example 29]: the IC50 in assay [1] amounted to 0.0184 µM; in assay [2] it was 0.00191 µM; in assay [3] it was 0.216 µM.
Turning to `Cc1cc(-c2[nH]nc(C(=O)NC3CCN(CCN(C)C)CC3)c2C(C)C)cn2ncnc12` [Example 83], the IC50 in assay [1] is 0.00633 µM; in assay [2], 0.238 µM; in assay [3], above 50 µM.
`Cc1cc(-c2[nH]nc(-c3cncc(N(C)C)c3)c2C(C)C)cn2ncnc12` [Example 238]: the figures for the IC50 in assay [1], in assay [2] and in assay [3] were 0.0054 µM, 0.00596 µM and 5.37 µM, respectively.
For `Cc1cc(-c2[nH]nc(CN(C)C)c2C(C)C)cn2ncnc12` [Example 184, 1-(4-isopropyl-5-(8-methyl-[1,2,4]triazolo[1,5-a]pyridin-6-yl)-1H-pyrazol-3-yl)-N,N-dimethylmethanamine], the values for the IC50 in assay [1], in assay [2] and in assay [3] were 0.00101 µM, 0.00084 µM and 11.4 µM, respectively.
The matching figures for `CCNc1ccc2nc(-c3n[nH]c(-c4cc(C)c5ncnn5c4)c3C(C)C)sc2c1` [Example 257]: 0.0136 µM, 0.00086 µM and 34.9 µM.
Consider `Cc1cc(-c2[nH]nc(C(=O)N[C@H]3CC[C@@H](NCc4cccnc4)CC3)c2C(C)C)cn2ncnc12` [Example 95], for which the IC50 in assay [1] is 0.0117 µM; in assay [2], 0.0238 µM; in assay [3], 43.2 µM.
The matching figures for `COc1cc(-c2[nH]nc(-c3ccc(C4CCN(CC#N)CC4)cn3)c2C(C)C)cn2ncnc12` [Example 394]: 0.154 µM, 0.529 µM and above 50 µM.
In the case of `Cc1cc(-c2[nH]nc(C(=O)NC3CN(Cc4ncn(C)n4)C3)c2C(C)C)cn2ncnc12` [Example 159], the figures for the IC50 in assay [1], in assay [2] and in assay [3] were 0.00879 µM, 0.00478 µM and 6.87 µM, respectively.
Turning to `Cc1cc(-c2[nH]nc(-c3ccc4c(c3)CCN(C3COC3)C4)c2C(C)C)cn2ncnc12` [Example 247], the IC50 came out at 0.00587 µM in assay [1], 0.00442 µM in assay [2] and 42.5 µM in assay [3].
As to `Cc1noc(C)c1CN1CCC(NC(=O)c2n[nH]c(-c3cc(C)c4ncnn4c3)c2C(C)C)CC1` [Example 78], the IC50 in assay [1] was found to be 0.00059 µM; in assay [2] it was 0.00164 µM; in assay [3], 2.87 µM.
With `Cc1cc(-c2[nH]nc(-c3cccc(N(C)C)c3)c2C(C)C)cn2ncnc12` [Example 245], the half-inhibitory concentration (IC50) in assay [1] turned out to be 0.0026 µM; in assay [2], 0.00065 µM; in assay [3], 22.9 µM.
For `Cc1cc(-c2[nH]nc(C3CCC(N(C)C(=O)C4CN(C(C)C)C4)CC3)c2C(C)C)cn2ncnc12` (single isomer, unassigned) [Example 303], the results for the IC50 in assay [1], in assay [2] and in assay [3] were 0.00799 µM, 0.00093 µM and 26.4 µM, respectively.
With `COc1cc(-c2[nH]nc(C(=O)NC3CCNCC3)c2C(C)C)cn2ncnc12` [Example 60], the results for the IC50 in assay [1], in assay [2] and in assay [3] were 0.0366 µM, 0.0279 µM and above 50 µM, respectively.
